# Several values for one entry are separate records, joined by “and”; a condition that tells them apart may be missing. Equal entries are not always repeated. Where two headings read alike, the source gives them in different places.
# Key:
# [1] = Pharmacokinetics in ICR mice after intravenous and intragastric administration; format: in vivo; conditions: for MRT last: read-out: MRT(0-t); for MRT inf: read-out: MRT(0-∞); for Vd: read-out: Vz
# Procedure, shortened: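 Male ICR mice (6-9 weeks, 20-30 g, n=3 per route) were fasted overnight and dosed at 2 mg/kg i.v. or 5 mg/kg intragastrically in 5% DMSO/40% PEG400/55% (10% HP-β-CD in saline). Plasma levels were measured by LC-MS/MS after protein precipitation (LLOQ 1 ng/mL), and non-compartmental PK parameters were calculated.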
# MDM2 = target: T1, MDM2 (Homo sapiens, UniProt Q00987); assay: Inhibition test of MDM2-P53 (GST-MDM2, Biotin-P53, Anti-GST-Tb, SA-XL665); format: binding
# T1 construct: made in house
# Procedure, shortened: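 Binding was measured by TR-FRET with GST-MDM2 at 4 nM final in PBS with 0.1% BSA, 5 mM DTT and 1 mM AEBSF. Compounds were tested as twelve-point 5-fold dilutions and incubated with the detection mix for 90 min at 25 °C with shaking before plate-reader reading and curve fitting.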
# [2] = tested on: human osteosarcoma cell line SJSA-1; assay: Inhibition of proliferation of human osteosarcoma cell line SJSA-1 (DAPI staining, In Cell Analyzer); conditions: Homo sapiens, SJSA-1, 72 h, read-out: IC50 (nM), inhibitory activity on proliferation of human osteosarcoma cell line SJSA-1, SJSA-1, incubated 72 h
# Method: 2.2 Experiment Preparation:
# 2.2.1 Preparation of a culture medium for human osteosarcoma cell line SJSA-1: RPMI1640+10% FBS+1% penicillin/streptomycin
# 2.2.2 Preparation of a test compound solution:
# a. the test compound solution with a certain concentration was taken, and diluted with the culture medium to obtain a compound solution with a final concentration of 20 μM;
# b. 200 μL of a culture medium containing 0.2% DMSO (dimethyl sulfoxide) was added into H2-H10 of a 96-well plate; 300 μl of the above solution was added into H1; and
# c. 100 μL was taken out from well H1, added into H2, and mixed well; then 100 μl of the resultant solution was taken and added into H3, and dilution was carried out in sequence until H9 to obtain the 3-fold serial dilution of the test compound.
# 2.3 Experimental Process:
# 2.3.1 SJSA-1 cells were inoculated into a 96-well cell plate with black transparent bottom at 4000 cells/100 μl/well, and cultured overnight at 37° C.;
# 2.3.3 Fixation: the cell plate was taken out, the culture medium was removed, and 50 μL of 4% paraformaldehyde solution was added to each well to fix for 10 min;
# 2.3.4 50 μl of 0.1 M glycine was added to neutralize for 10 min;
# 2.3.5 Washing was performed with 1×PBS (phosphate buffer solution pH7.2) twice;
# 2.3.6 Permeabilization: 50 μL of 0.2% TritonX-100 (Triton) was added per well, and permeabilization was carried out at room temperature for 10 min;
# 2.3.7 Washing was performed with 1×PBS (phosphate buffer solution pH7.2) twice;
# 2.3.9 Washing was performed with 1×PBS (phosphate buffer solution pH7.2) for three times; and
# 2.3.10 Scanning and analysis were performed by In cell analyzer.
# The inhibition rate of each compound at each concentration point was calculated according to the following formula, and curve fitting was performed by GraphPad Prism 6.0 software to obtain the IC50 value.
# [3] = ICR mice, IV 2 mg/kg, individual animals 301-303, 2 mg/kg
# [4] = ICR mice, PO 5 mg/kg, individual animals 401-403, 5 mg/kg
# [5] = male, ICR, mouse, plasma, iv, 2 mg/kg, ICR mice, IV 2 mg/kg, individual animals 301-303
# [6] = male, ICR, mouse, plasma, iv, 2 mg/kg, ICR mice, IV 2 mg/kg, mean of 3 animals
# [7] = male, ICR, mouse, plasma, po, 5 mg/kg, ICR mice, PO 5 mg/kg, individual animals 401-403
# [8] = male, ICR, mouse, plasma, po, 5 mg/kg, ICR mice, PO 5 mg/kg, mean of 3 animals
# T1 sequence (Q00987 whole entry): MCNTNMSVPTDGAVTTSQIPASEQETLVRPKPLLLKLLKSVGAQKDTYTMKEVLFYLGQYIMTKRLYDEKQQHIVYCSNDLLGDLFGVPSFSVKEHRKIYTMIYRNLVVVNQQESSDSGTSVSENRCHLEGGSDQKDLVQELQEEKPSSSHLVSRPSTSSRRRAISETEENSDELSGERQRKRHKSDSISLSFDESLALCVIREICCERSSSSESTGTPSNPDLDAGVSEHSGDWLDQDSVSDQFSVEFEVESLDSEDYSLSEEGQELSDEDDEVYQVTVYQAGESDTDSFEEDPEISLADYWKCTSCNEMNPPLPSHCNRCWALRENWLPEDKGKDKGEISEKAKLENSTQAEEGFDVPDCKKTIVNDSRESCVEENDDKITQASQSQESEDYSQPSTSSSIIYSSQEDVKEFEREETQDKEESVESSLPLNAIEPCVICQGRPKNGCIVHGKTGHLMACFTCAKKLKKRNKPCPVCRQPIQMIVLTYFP
smiles,measurement,setting,value
"CCOc1ncc(-c2nc3c(n2C(C)C)[C@@]2(C(=O)Nc4cc(Cl)ccc42)N(c2cc(Cl)cnc2C)C3=O)c(OC)n1 [Example S-134, (S)-6-chloro-5′-(5-chloro-2-methylpyridin-3-yl)-2′-(2-ethoxy-4-methoxypyrimidin-5-yl)-3′-isopropyl-3′H-spiro[dihydroindole-3,4′-pyrrolo[3,4-d]imidazole]-2,6′(5′H)-dione]",AUC(0-t),[1]; [3],7289.25 ng·h/mL and 6534.27 ng·h/mL
same,AUC(0-∞),[1]; [3],7419.12 ng·h/mL and 6880.52 ng·h/mL
same,CL,[1]; [3],4.49 mL/min/kg and 4.84 mL/min/kg
same,Cmax,[1]; [3],4224.01 ng/mL and 3408.57 ng/mL
same,MRT(0-t),[1]; [3],1.28 h and 1.50 h
same,MRT(0-∞),[1]; [3],1.39 h and 1.83 h
same,Tmax,[1]; [3],4.8 min and 15 min
same,Vz,[1]; [3],0.42 L/kg and 0.61 L/kg
same,t1/2,[1]; [3],1.07 h and 1.47 h
same,F*,"[1]; ICR mice, PO 5 mg/kg vs IV 2 mg/kg, mean",47.70%
same,AUC(0-t),[1]; [4],7889.97 ng·h/mL and 4859.23 ng·h/mL
same,AUC(0-∞),[1]; [4],8123.13 ng·h/mL and 4978.41 ng·h/mL
same,Cmax,[1]; [4],3905.15 ng/mL and 3059.53 ng/mL and 1591.65 ng/mL
same,MRT(0-t),[1]; [4],2.21 h
same,MRT(0-∞),[1]; [4],2.28 h and 2.40 h
same,Tmax,[1]; [4],15 min
same,t1/2,[1]; [4],1.54 h and 1.43 h
same,AUC(0-inf),[1]; [5],5060 ng·h/mL
same,clearance,[1]; [5],6.59 mL/min/kg
same,AUC(0-t),"[1]; male, ICR, mouse, plasma, iv, 2 mg/kg, ICR mice, IV 2 mg/kg, individual animals 301-303, read-out: AUC(0-t)",5020 ng·h/mL
same,Cmax,"[1]; male, ICR, mouse, plasma, iv, 2 mg/kg, ICR mice, IV 2 mg/kg, individual animals 301-303, read-out: Cmax",3520 ng/mL
same,MRT last,[1]; [5],1.17 h
same,MRT inf,[1]; [5],1.23 h
same,Vd,[1]; [5],0.53 L/kg
same,half-life,"[1]; male, ICR, mouse, plasma, iv, 2 mg/kg, ICR mice, IV 2 mg/kg, individual animals 301-303, read-out: t1/2 (converted)",55.8 min
same,AUC(0-inf),[1]; [6],6450 ng·h/mL
same,clearance,[1]; [6],5.31 mL/min/kg
same,AUC(0-t),"[1]; male, ICR, mouse, plasma, iv, 2 mg/kg, ICR mice, IV 2 mg/kg, mean of 3 animals, read-out: AUC(0-t)",6280 ng·h/mL
same,Cmax,"[1]; male, ICR, mouse, plasma, iv, 2 mg/kg, ICR mice, IV 2 mg/kg, mean of 3 animals, read-out: Cmax",3720 ng/mL
same,MRT last,[1]; [6],1.32 h
same,MRT inf,[1]; [6],1.48 h
same,Tmax,"[1]; male, ICR, mouse, plasma, iv, 2 mg/kg, ICR mice, IV 2 mg/kg, mean of 3 animals, read-out: Tmax",8.4 min
same,Vd,[1]; [6],0.52 L/kg
same,half-life,"[1]; male, ICR, mouse, plasma, iv, 2 mg/kg, ICR mice, IV 2 mg/kg, mean of 3 animals, read-out: t1/2 (converted)",69 min
same,AUC(0-inf),[1]; [7],9930 ng·h/mL
same,AUC(0-t),"[1]; male, ICR, mouse, plasma, po, 5 mg/kg, ICR mice, PO 5 mg/kg, individual animals 401-403, read-out: AUC(0-t)",9720 ng·h/mL
same,MRT last,[1]; [7],2.04 h
same,MRT inf,[1]; [7],2.21 h
same,Tmax,"[1]; male, ICR, mouse, plasma, po, 5 mg/kg, ICR mice, PO 5 mg/kg, individual animals 401-403, read-out: Tmax",30 min
same,half-life,"[1]; male, ICR, mouse, plasma, po, 5 mg/kg, ICR mice, PO 5 mg/kg, individual animals 401-403, read-out: t1/2 (converted)",82.8 min
same,AUC(0-inf),[1]; [8],7680 ng·h/mL
same,AUC(0-t),"[1]; male, ICR, mouse, plasma, po, 5 mg/kg, ICR mice, PO 5 mg/kg, mean of 3 animals, read-out: AUC(0-t)",7490 ng·h/mL
same,Cmax,"[1]; male, ICR, mouse, plasma, po, 5 mg/kg, ICR mice, PO 5 mg/kg, mean of 3 animals, read-out: Cmax",2850 ng/mL
same,MRT last,[1]; [8],2.1 h
same,MRT inf,[1]; [8],2.29 h
same,Tmax,"[1]; male, ICR, mouse, plasma, po, 5 mg/kg, ICR mice, PO 5 mg/kg, mean of 3 animals, read-out: Tmax",25.2 min
same,half-life,"[1]; male, ICR, mouse, plasma, po, 5 mg/kg, ICR mice, PO 5 mg/kg, mean of 3 animals, read-out: t1/2 (converted)",87 min
same,AUC(0-t),"[1]; male, ICR, mouse, plasma, po, 5 mg/kg, oral intragastric administration 5 mg/kg, read-out: AUC0-t",7490 ng·h/mL
same,half-life,"[1]; male, ICR, mouse, plasma, po, 5 mg/kg, oral intragastric administration 5 mg/kg, read-out: half-life (converted)",87 min
same,IC50,MDM2,2.6 nM
same,IC50,[2],82.2 nM

# Reference: US11339171B2, “MDM2 inhibitors” (Gan & Lee Pharmaceuticals, priority 2017, dated 2022)
